Data reported in patent publication US20040204383A1, “Lysophosphatidic acid analogs and inhibition of neointima formation” (priority 2003, published 2004).

Assays:
[1] = system: vascular smooth muscle cells; experiment: Phenotypic modulation and dedifferentiation of cultured VSMCs (morphology, hCAD mRNA); format: cell-based, rat; settings: for morphology of VSMCs: 1 μM for 3 days, cultures established in 2 ng/ml IGF-1
Method: Expression of lysophosphatidic acid-specific G protein-coupled plasma membrane receptors in rat carotid arteries was examined by RT-PCR as described earlier by Wang et al. (2002). To quantify heavy caldesmon mRNA, quantitative PCR was performed applying the real-time SYBR Green PCR method using a Sequence Detection System Model 7700 (Applied Biosystems) instrument. Rat heavy caldesmon and GAPDH (reference control mRNA)-specific primers were designed with Primer Express Software (Applied Biosystems), and forward and reverse primers were as follows: 5′-[…]-3′ (SEQ ID NO:1) and 5′-[…]-3′ (SEQ ID NO:2) for heavy caldesmon; 5′-[…]-3′ (SEQ ID NO:3) and 5′-[…]-3′ (SEQ ID NO:4) for GAPDH. Amplification reaction was performed with SYBR Green PCR Master Mix (Applied Biosystems) following the manufacturer's protocol. mRNA abundance calculation was based on Ct values as described previously (Wang et al., 2002). The expression level of heavy caldesmon mRNA was normalized to GAPDH mRNA. Each PCR reaction was performed at least three times, and the result was expressed as mean±SEM. Statistical comparison of mRNA expression was evaluated by ANOVA, and P<0.05 was considered statistically significant.
It has been reported that unsaturated lysophosphatidic acid species induced phenotypic modulation of cultured vascular smooth muscle cells (VSMCs). Because the neointimal response and PPARγ display a similar selectivity for unsaturated lysophosphatidic acid, that activation of PPARγ plays a role in the phenotypic dedifferentiation is hypothesized herein. This hypothesis was tested in a culture system in which IGF-1 maintains the differentiated spindle shape of vascular smooth muscle cells as indicated by high levels of heavy caldesmon (hCAD) mRNA expression.

[2] = system: CD36; experiment: Immunostaining for CD36 in treated rat carotid arteries; format: in vivo; settings: LPA 2.5 μM, 4 wk after treatment; LDL data not shown
Method: (§1) FIGS. 7A-D show immunohistological staining for PPARγ in rat carotid arteries. Only a few nuclei show PPARγ immunoreactivity in a carotid artery 4 wk after treatment with 2.5 μM LPA 20:0 (FIG. 7A). In contrast, the multilayered neointima elicited by LPA 20:4 expresses high levels of PPARγ immunoreactivity (FIG. 7B). Activation of PPARγ within neointima in LPA 20:4-treated carotid arteries is indicated by the strong expression of CD36 in a distribution that overlaps that of PPARγ (FIG. 7D). […] Anti-PPARγ and anti-CD36 were from Santa Cruz Biotechnology, Inc. Bars, 250 μm.
The scavenger receptor CD36, a PPARγ-regulated gene, contains a PPAR response element within its promoter between base pairs −273 and −261. CD36 plays a critical role in lipid uptake by binding and transporting oxidized lipids, including minimally oxidized LDL. Thus, this pathway could provide a source of ligands, such as lysophosphatidic acid, alkyl-GP, and AZ-PC, to sustain PPARγ activation. Acyl and alkyl forms of lysophosphatidic acid both accumulate in human atherosclerotic plaques. Lysophosphatidic acid activates CD36-mediated lipid uptake into macrophages through a PPARγ-PPRE-dependent mechanism.

[3] = system: rat carotid arteries; experiment: Induction of neointima formation in rat carotid artery by topical application; format: in vivo; settings: for neointimal growth: 2.5 μM, 1 h exposure, monitored up to 8 wk (FIG. 4A)
From the text: Briefly, the right carotid artery of anesthetized adult male Sprague-Dawley rats (250-300 g) was surgically exposed. The caudal origin of the common carotid artery was ligated using a vessel clip, followed by exposure and ligation of the internal carotid artery above the bifurcation. The external carotid artery was exposed, and a polyethylene catheter was inserted such that it never reached the common carotid artery, thereby avoiding mechanical injury to the vessel. The clip occluding the common carotid artery was temporarily released, and the vessel was rinsed with a retrograde injection of 500 μl physiological saline to remove residual blood. The vessel was again clipped, and 100 μl of treatment solution was injected. After 60 min of incubation, the cannula was withdrawn, the external carotid artery was ligated, and blood flow was restored. Animals were allowed to recover and were killed 7-56 d later by intracardiac perfusion of 10% buffered formaldehyde (pH 7.4). The common carotid artery from the […] to the bifurcation was dissected, embedded in paraffin, and processed for histological analysis. Five μm-thick sections were cut and stained with hematoxylin and eosin or Masson's trichrome stain. Intima to media ratios were quantified using an image analysis system (Scion Image CMS-800).

[4] = system: PPARγ; experiment: Immunohistological staining for PPARγ in treated rat carotid arteries; format: in vivo; settings: LPA 2.5 μM, 4 wk after treatment; LDL data not shown
Method: as §1
Expression of PPARγ protein was examined in rat carotid arteries exposed to lysophosphatidic acid or minimally oxidized LDL.

[5] = system: CD36(−273)-Rluc reporter gene; experiment: CD36(−273)-Rluc reporter gene (with PPRE) in CV-1 cells; format: cell-based; settings: 10 μM, CV-1 cells (FIG. 7E)
Method: (§2) Therefore, the investigators compared the unique in vivo neointima-eliciting lysophosphatidic acid structure-activity relationship with that of PPARγ using an in vitro assay that utilizes an acyl-coenzyme A oxidase-luciferase (PPRE-Acox-Rluc) reporter gene construct containing a peroxisome proliferator-activated receptor response element. CV-1 cells were plated in 96-well plates (5×10^3 cells per well) in DME supplemented with 10% FBS. The next day, the cells were transiently transfected with 125 ng of pGL3-PPRE-acyl-CoA oxidase (Acox)-renilla luciferase), or 125 ng pGL3-CD36(−273), or pGL3-CD36(−261), 62.5 ng of pcDNAI-PPARγ, and 12.5 ng of pSV-β-galactosidase (Promega) using LipofectAMINE™ 2000 (Invitrogen). Twenty four hours after transfection, cells were treated with 1% FBS-supplemented OptiMEMI™ (Invitrogen) containing DMSO or test compound (10 μM) in DMSO for 20 h. Luciferase and β-galactosidase activities were measured with the Steady-Glo® Luciferase Assay System (Promega) and the Galacto-Light Plus™ System (Applied Biosystems), respectively. Samples were run in quadruplicate, and the mean±SE were calculated. Data are representative of at least three independent transfections. Student's t test was used for null hypothesis testing, and P<0.05 was considered significant.

[6] = system: CD36(−261)-Rluc reporter gene; experiment: CD36(−261)-Rluc reporter gene (deleted PPRE) in CV-1 cells; format: cell-based; settings: 10 μM, CV-1 cells (FIG. 7E)
Method: as §2

[7] = biological target: LPA2 (Homo sapiens, UniProt Q9HBW0); settings: cited from earlier work
[8] = biological target: T1, LPA3 (Homo sapiens, UniProt Q9UBY5); settings: cited from earlier work
T1 sequence (Q9UBY5 1-353): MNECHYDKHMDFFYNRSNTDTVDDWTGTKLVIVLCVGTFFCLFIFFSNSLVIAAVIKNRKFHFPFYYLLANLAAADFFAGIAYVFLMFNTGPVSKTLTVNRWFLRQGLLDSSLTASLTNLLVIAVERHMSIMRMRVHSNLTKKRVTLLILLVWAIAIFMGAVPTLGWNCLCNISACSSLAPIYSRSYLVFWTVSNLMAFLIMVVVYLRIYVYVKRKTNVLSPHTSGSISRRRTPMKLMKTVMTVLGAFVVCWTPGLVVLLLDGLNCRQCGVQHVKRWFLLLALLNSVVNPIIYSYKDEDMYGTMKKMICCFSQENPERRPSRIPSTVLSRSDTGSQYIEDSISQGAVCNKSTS

[9] = biological target: LPA1 (Homo sapiens, UniProt Q92633); settings: cited from earlier work
Sequence of LPA1 (Q92633 whole entry, species assumed): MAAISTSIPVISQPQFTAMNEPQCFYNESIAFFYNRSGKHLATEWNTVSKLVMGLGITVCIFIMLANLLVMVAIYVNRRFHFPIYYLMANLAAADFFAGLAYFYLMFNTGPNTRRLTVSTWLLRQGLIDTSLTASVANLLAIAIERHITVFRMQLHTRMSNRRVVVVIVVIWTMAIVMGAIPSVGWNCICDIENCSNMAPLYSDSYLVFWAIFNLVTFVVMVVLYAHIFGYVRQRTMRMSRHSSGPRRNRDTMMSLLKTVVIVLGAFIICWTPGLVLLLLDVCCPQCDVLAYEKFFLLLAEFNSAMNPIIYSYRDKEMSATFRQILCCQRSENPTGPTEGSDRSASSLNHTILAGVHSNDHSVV

Sequence of LPA2 (Q9HBW0 whole entry, species assumed): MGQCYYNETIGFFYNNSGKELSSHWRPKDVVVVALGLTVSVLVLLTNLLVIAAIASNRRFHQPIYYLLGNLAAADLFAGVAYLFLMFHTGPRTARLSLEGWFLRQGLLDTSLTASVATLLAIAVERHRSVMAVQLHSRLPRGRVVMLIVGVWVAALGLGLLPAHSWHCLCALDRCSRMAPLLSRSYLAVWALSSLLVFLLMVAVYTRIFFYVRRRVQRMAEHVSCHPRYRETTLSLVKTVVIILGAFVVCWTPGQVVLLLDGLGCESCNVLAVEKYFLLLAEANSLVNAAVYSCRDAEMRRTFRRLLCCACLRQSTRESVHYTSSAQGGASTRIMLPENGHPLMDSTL

Row | SMILES | morphology of VSMCs [1] | CD36 immunoreactivity in carotid artery [2] | neointimal growth [3] | PPARγ immunoreactivity in carotid artery [4] | decrease of hCAD mRNA expression ([1]; quantitative RT-PCR, day 5 (FIG. 8I)) | stimulation of CD36(−273)-Rluc reporter gene [5] | stimulation of CD36(−261)-Rluc reporter gene (deleted PPRE) [6] | neointima formation when delivered as BSA complexes ([3]; Rosi 10 μM, LPA 20:4 2.5 μM, 10 μM albumin, 2 wk after treatment (FIG. 7F)) | neointima formation when delivered in rat plasma or serum ([3]; Rosi 10 μM, LPA 20:4 2.5 μM, 2 wk after treatment (FIG. 7F)) | activity at LPA2 [7] | activity at LPA3 [8] | activity at LPA1 [9]
1 | CCCCCCCCCCCCCCCCCCCC(=O)OC[C@@H](O)COP(=O)(O)O [LPA 20:0] | maintained the spindle-like differentiated morphology | no increase in immunoreactivity | completely inactive | only a few stained nuclei |  |  |  |  |  |  |  | 
2 | CCCCC/C=C\C/C=C\C/C=C\C/C=C\CCCC(=O)OC[C@@H](O)COP(=O)(O)O [LPA 20:4] | developed a fibroblast-like flattened morphology | intense CD36 immunoreactivity | elicited progressive neointimal growth | intense PPARγ immunoreactivity | most pronounced | elicited significant stimulation | neither Rosi nor lysophosphatidic acid 20:4 activated the reporter gene | elicited neointima formation | no neointima formation was detected |  |  | 
3 | CCCCCCCCCCCCOP(=O)(O)O [fatty alcohol phosphate 12:0] |  |  |  |  |  |  |  |  |  | specific agonist | antagonist | without any effect
